Measured values taken from patent US20260042764A1, “COMPOSITIONS AND METHODS FOR INHIBITION OF KRAS” (TheRas, Inc., priority 2022, published 2026).

Experiments:
[1] = target: T1, Avi-KRAS G12V (1-169) GppNHp/RAF1 RBD-3xFLAG (52-151) (Homo sapiens, UniProt P01116, G12V); experiment: Raf1-KRAS G12V-GppNHP disruption HTRF assay (Biological Example 1); format: binding
T1 construct: Avi-KRAS G12V (1-169)
Summary of the method: (§1)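 Percent activity versus DMSO (100%) was derived from HTRF signal after KRAS–RAF1 RBD protein mix was incubated 1 h at room temperature with shaking and detection reagents were added for a further 1 h.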

[2] = target: T2, Avi-KRAS G12R (1-169) GppNHp/RAF1 RBD-3xFLAG (52-151) (Homo sapiens, UniProt P01116, G12R); experiment: Raf1-KRAS G12R-GppNHP disruption HTRF assay (Biological Example 1); format: binding
T2 construct: Avi-KRAS G12R (1-169)
T2 sequence (P01116 1-169 isoform P01116-2 G12R): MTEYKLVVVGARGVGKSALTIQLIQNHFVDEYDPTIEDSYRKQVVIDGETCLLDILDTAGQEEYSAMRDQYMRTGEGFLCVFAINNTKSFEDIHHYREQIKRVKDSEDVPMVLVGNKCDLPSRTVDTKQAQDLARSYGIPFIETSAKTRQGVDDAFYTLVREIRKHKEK
Summary of the method: as §1

[3] = target: T3, Avi-KRAS G12D (1-169) GppNHp/RAF1 RBD-3xFLAG (52-151) (Homo sapiens, UniProt P01116, G12D); experiment: Raf1-KRAS G12D-GppNHP disruption HTRF assay (Biological Example 1); format: binding
T3 construct: Avi-KRAS G12D (1-169)
T3 sequence (P01116 1-169 isoform P01116-2 G12D): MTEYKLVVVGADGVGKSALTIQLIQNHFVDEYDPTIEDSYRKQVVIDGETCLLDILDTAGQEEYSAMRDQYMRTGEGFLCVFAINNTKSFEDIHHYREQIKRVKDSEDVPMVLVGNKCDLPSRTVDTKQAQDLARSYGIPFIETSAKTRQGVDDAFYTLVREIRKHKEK
Summary of the method: as §1

[4] = target: T4, Avi-KRAS WT (1-169) GppNHp/RAF1 RBD-3xFLAG (52-151) (Homo sapiens, UniProt P01116); experiment: Raf1-KRAS WT-GppNHP disruption HTRF assay (Biological Example 1); format: binding
T4 construct: Avi-KRAS WT (1-169)
T4 sequence (P01116 1-169 isoform P01116-2): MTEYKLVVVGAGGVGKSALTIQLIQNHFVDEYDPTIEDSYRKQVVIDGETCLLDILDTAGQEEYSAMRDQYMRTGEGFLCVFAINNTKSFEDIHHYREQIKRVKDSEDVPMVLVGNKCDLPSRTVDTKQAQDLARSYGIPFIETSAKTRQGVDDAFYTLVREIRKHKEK
Summary of the method: as §1

SW620 cells (KRAS G12V) = experiment: Cell-based pERK HTRF assay in SW620 cell (Biological Example 4); details: Homo sapiens, SW-620, SW620 (KRAS G12V) cells, pERK HTRF
Summary of the method: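 In SW620 cells grown in RPMI with 10% FBS, a 4 h compound treatment (0.25% DMSO, 9-point curve from 1 μM) preceded lysis. Phospho-ERK levels were then read by time-resolved FRET at 615 nm emission.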

GP2d cells (KRAS G12D) = experiment: Cell-based pERK HTRF assay in GP2d cell (Biological Example 2); details: GP2d, GP2d (KRAS G12D) cells, pERK HTRF
Summary of the method: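 Cells grown in DMEM with 10% FBS were exposed to compound for 60 min at 0.25% DMSO, using a 9-point half-log series starting at 1 μM or 100 nM. Lysates were then mixed with d2 and Eu cryptate antibodies for 4–24 h at room temperature, and pERK was read by HTRF.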

[5] = KRAS G12V, GppNHp-loaded, class symbols
[6] = KRAS G12R, GppNHp-loaded, class symbols
[7] = KRAS G12D, GppNHp-loaded, class symbols
[8] = KRAS WT, GppNHp-loaded, class symbols

T1 sequence (P01116 1-169 isoform P01116-2 G12V): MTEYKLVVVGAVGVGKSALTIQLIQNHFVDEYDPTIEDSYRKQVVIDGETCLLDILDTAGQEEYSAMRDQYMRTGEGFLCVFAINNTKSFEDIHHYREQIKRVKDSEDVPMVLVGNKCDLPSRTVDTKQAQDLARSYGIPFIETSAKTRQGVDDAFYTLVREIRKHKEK

| Compound | IC50 [1, 5] [nM] | IC50 [2, 6] [nM] | IC50 [3, 7] [nM] | IC50 [4, 8] [nM] | IC50 (SW620 cells (KRAS G12V); class symbols) [nM] | IC50 (GP2d cells (KRAS G12D); class symbols) [nM] | IC50 ([1]; KRAS G12V, GppNHp-loaded, Table 11) [nM] | IC50 ([2]; KRAS G12R, GppNHp-loaded, Table 11) [nM] | IC50 ([3]; KRAS G12D, GppNHp-loaded, Table 11) [nM] | IC50 ([4]; KRAS WT, GppNHp-loaded, Table 11) [nM] | IC50 (SW620 cells (KRAS G12V)) [nM] | IC50 (GP2d cells (KRAS G12D)) [nM] | IC50 ([1]; KRAS G12V-GppNHp/RAF1 RBD HTRF) [nM] | IC50 ([2]; KRAS G12R-GppNHp/RAF1 RBD HTRF) [nM] | IC50 ([3]; KRAS G12D-GppNHp/RAF1 RBD HTRF) [nM] | IC50 ([4]; KRAS WT-GppNHp/RAF1 RBD HTRF) [nM] |
| --- | --- | --- | --- | --- | --- | --- | --- | --- | --- | --- | --- | --- | --- | --- | --- | --- |
| [2H]C1([2H])CN2C[C@H](F)C[C@]2(COc2nc(N3C[C@H]4C[C@@H]3CO4)c3cc(C(F)(F)F)c(-c4ccc(F)c5sc(N)c(C#N)c45)c(F)c3n2)C1 [Compound 567] | 100 to 1000 | 100 to 1000 | 100 to 1000 | 100 to 1000 | < 100 | < 100 | – | – | – | – | – | – | – | – | – | – |
| C[C@@H]1[C@H](N(C)c2nc(OC[C@@]34CCCN3C[C@H](F)C4)nc3c(F)c(-c4ccc(F)c5sc(N)c(C#N)c45)c(C(F)(F)F)cc23)CCN1C(=O)C(C)(C)F [Compound 424] | – | – | – | – | – | – | – | – | – | – | 100 to 1000 | < 100 | 1000 to 10000 | 100 to 1000 | 100 to 1000 | 100 to 1000 |
| C=C(C)C(=O)N1CC[C@@H](N(C)c2nc(OC[C@@]34CCCN3C[C@H](F)C4)nc3c(F)c(-c4ccc(F)c5sc(N)c(C#N)c45)c(C(F)(F)F)cc23)[C@H]1C [Compound 671] | 100 to 1000 | 100 to 1000 | 100 to 1000 | 100 to 1000 | 100 to 1000 | < 100 | – | – | – | – | – | – | – | – | – | – |
| [2H]C1([2H])CN2C[C@H](F)C[C@]2(COc2nc(N(C)[C@@H]3CCN(C(=O)C4CC4)[C@@H]3C)c3cc(C(F)(F)F)c(-c4ccc(F)c5sc(N)c(C#N)c45)c(F)c3n2)C1 [Compound 522] | – | – | – | – | – | – | – | – | – | – | < 100 | < 100 | 100 to 1000 | < 100 | 100 to 1000 | < 100 |
| N#Cc1c(N)sc2c(F)ccc(-c3c(C(F)(F)F)cc4c(N5CC6C(=O)NC(=O)C6C5)nc(OC[C@@]56CCCN5C[C@H](F)C6)nc4c3F)c12 (stereo partly drawn) [Compound 308] | – | – | – | – | – | – | – | – | – | – | > 1000 | 100 to 1000 | 1000 to 10000 | 1000 to 10000 | 100 to 1000 | 100 to 1000 |
| CC(C)C(=O)N1CC[C@@](C)(N(C)c2nc(OC[C@@]34CCCN3C[C@H](F)C4)nc3c(F)c(-c4ccc(F)c5sc(N)c(C#N)c45)c(C(F)(F)F)cc23)[C@H]1C [Compound 345] | – | – | – | – | – | – | – | – | – | – | 100 to 1000 | 100 to 1000 | > 10000 | > 10000 | 1000 to 10000 | 1000 to 10000 |

The next lines start with the values.

| IC50 [1, 5] [nM] | IC50 [2, 6] [nM] | IC50 [3, 7] [nM] | IC50 [4, 8] [nM] | IC50 (SW620 cells (KRAS G12V); class symbols) [nM] | IC50 (GP2d cells (KRAS G12D); class symbols) [nM] | IC50 ([1]; KRAS G12V, GppNHp-loaded, Table 11) [nM] | IC50 ([2]; KRAS G12R, GppNHp-loaded, Table 11) [nM] | IC50 ([3]; KRAS G12D, GppNHp-loaded, Table 11) [nM] | IC50 ([4]; KRAS WT, GppNHp-loaded, Table 11) [nM] | IC50 (SW620 cells (KRAS G12V)) [nM] | IC50 (GP2d cells (KRAS G12D)) [nM] | IC50 ([1]; KRAS G12V-GppNHp/RAF1 RBD HTRF) [nM] | IC50 ([2]; KRAS G12R-GppNHp/RAF1 RBD HTRF) [nM] | IC50 ([3]; KRAS G12D-GppNHp/RAF1 RBD HTRF) [nM] | IC50 ([4]; KRAS WT-GppNHp/RAF1 RBD HTRF) [nM] | Compound |
| --- | --- | --- | --- | --- | --- | --- | --- | --- | --- | --- | --- | --- | --- | --- | --- | --- |
| < 100 | < 100 | < 100 | < 100 | < 100 | < 100 | – | – | – | – | – | – | – | – | – | – | [2H]C([2H])([2H])C([2H])(C(=O)N1CC[C@H](N(CC)c2nc(OC[C@@]34CCCN3C[C@H](F)C4)nc3c(F)c(-c4ccc(F)c5sc(N)c(C#N)c45)c(C(F)(F)F)cc23)C1)C([2H])([2H])[2H] (atropisomer, axis not shown) [Compound 707] |
| – | – | – | – | – | – | 100 to 1000 | 100 to 1000 | 100 to 1000 | 100 to 1000 | < 100 | < 100 | – | – | – | – | CC(=O)N1CC[C@@H](N(C)c2nc(OC[C@@]34CCCN3C[C@H](F)C4)nc3c(F)c(-c4ccc(F)c5sc(N)c(C#N)c45)c(C(F)(F)F)cc23)C1 [Compound 112] |
| – | – | – | – | – | – | – | – | – | – | < 100 | < 100 | 100 to 1000 | 100 to 1000 | 100 to 1000 | 100 to 1000 | CCC(=O)N1CC[C@@H](N(CC)c2nc(OC[C@@]34CCCN3C[C@H](F)C4)nc3c(F)c(-c4ccc(F)c5sc(N)c(C#N)c45)c(C(F)(F)F)cc23)[C@H]1C [Compound 405] |
| < 100 | < 100 | < 100 | < 100 | < 100 | < 100 | – | – | – | – | – | – | – | – | – | – | [2H][C@]1(N(CC)c2nc(OC[C@@]34CCCN3C[C@H](F)C4)nc3c(F)c(-c4ccc(F)c5sc(N)c(C#N)c45)c(C(F)(F)F)cc23)CCN(C(=O)OC)C1 (atropisomer, axis not shown) [Compound 800] |
